# How the values were obtained:
# wheat = test: Test A pre-/postemergence greenhouse test; assay type: in vivo, Triticum aestivum; settings: for Wheat plant response rating: 0 to 100 scale
# How it was run: (§1)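 Two application timings were run side by side in the greenhouse. Before emergence, compound went onto the soil surface of loam–sand pots as a directed spray; after emergence, plants at 2–10 cm and the one- to two-leaf stage were treated. Visual injury versus controls was rated at approximately day ten.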
# rice = test: Test C flooded paddy test; assay type: in vivo, Oryza sativa; settings: Flood
# How it was run: (§2)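 Greenhouse pots flooded to 3 cm above soil at time of treatment received compound via the water, which stayed at that level.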
# bermudagrass = test: Test C pre-/postemergence test; assay type: in vivo, Cynodon dactylon
# How it was run: (§3)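 Test chemicals were formulated with surfactant in a non-phytotoxic solvent and sprayed both on freshly planted seeds (preemergence) and on 1- to 4-leaf plants of 2–18 cm (postemergence). Flooded-paddy pots received compound directly into 3 cm of standing water, maintained for the test.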
# crabgrass = test: Test C pre-/postemergence test; assay type: in vivo, Digitaria sanguinalis; settings: Preemergence
# How it was run: as §3
# johnsongrass = test: Test C pre-/postemergence test; assay type: in vivo, Sorghum halepense; settings: Preemergence
# How it was run: as §3
# pigweed = test: Test C pre-/postemergence test; assay type: in vivo, Amaranthus retroflexus; settings: Preemergence
# How it was run: as §3
# corn = test: Test A pre-/postemergence greenhouse test; assay type: in vivo, Zea mays; settings: for Corn plant response rating: 0 to 100 scale
# How it was run: as §1
# giant foxtail [1] = test: Test C pre-/postemergence test; assay type: in vivo, Setaria faberii; settings: Preemergence
# How it was run: as §3
# barnyardgrass = test: Test C flooded paddy test; assay type: in vivo, Echinochloa crus-galli; settings: Flood
# How it was run: as §2
# morningglory = test: Test C pre-/postemergence test; assay type: in vivo, Ipomoea coccinea; settings: Preemergence
# How it was run: as §3
# lambsquarters = test: Test C pre-/postemergence test; assay type: in vivo, Chenopodium album; settings: Preemergence
# How it was run: as §3
# soybean = test: Test C pre-/postemergence test; assay type: in vivo, Glycine max; settings: Preemergence
# How it was run: as §3
# downy brome = test: Test C pre-/postemergence test; assay type: in vivo, Bromus tectorum
# How it was run: as §3
# giant foxtail [2] = test: Test A pre-/postemergence greenhouse test; assay type: in vivo, Setaria faberi; settings: for Foxtail, Giant plant response rating: 0 to 100 scale
# How it was run: as §1
# Surinam grass = test: Test C pre-/postemergence test; assay type: in vivo, Brachiaria decumbens; settings: Preemergence
# How it was run: as §3
# velvetleaf = test: Test A pre-/postemergence greenhouse test; assay type: in vivo, Abutilon theophrasti; settings: for Velvetleaf plant response rating: 0 to 100 scale
# How it was run: as §1
# catchweed bedstraw = test: Test C pre-/postemergence test; assay type: in vivo, Galium aparine; settings: Preemergence
# How it was run: as §3
# [3] = Postemergence, 125 g ai/ha, 0 is no effect, 100 is complete control
# [4] = Postemergence, 500 g ai/ha, 0 is no effect, 100 is complete control
# [5] = Preemergence, 125 g ai/ha, 0 no effect, 100 complete control
# [6] = Preemergence, 500 g ai/ha, 0 to 100 scale where 0 is no effect and 100 is complete control
# [7] = 31 g ai/ha, scale 0 to 100 (0 no effect, 100 complete control)
# [8] = 62 g ai/ha, scale 0 to 100, 0 no effect, 100 complete control, 13 to 15 days
# [9] = 125 g ai/ha, scale 0 to 100, 0 no effect, 100 complete control, 13 to 15 days
# [10] = 250 g ai/ha, scale 0 to 100, 0 no effect, 100 complete control, 13 to 15 days
# [11] = Preemergence, 31 g ai/ha, scale 0 to 100 (0 no effect, 100 complete control)
# [12] = preemergence, 125 g ai/ha, scale 0 (no effect) to 100 (complete control)
smiles,measurement,setting,value
Cc1cc[n+]([O-])c(S(=O)(=O)Cc2c(C(F)(F)F)nn(C)c2OCC(F)(F)F)c1 [Compound 31],Wheat plant response rating,wheat; [3],50
same,Wheat plant response rating,wheat; [4],60
same,Wheat plant response rating,wheat; [5],60
same,"Plant response rating, Wheat",wheat; [6],80
same,"Plant response rating, Rice",rice; [7],0
same,"Plant response rating, Rice",rice; [8],0
same,"Plant response rating, Rice",rice; [9],60
same,"Plant response rating, Rice",rice; [10],70
same,Bermudagrass plant response rating,"bermudagrass; 62 g ai/ha, Preemergence, scale 0 to 100 (0 no effect, 100 complete control)",100
same,"Plant response rating, Bermudagrass",bermudagrass; [11],100
same,"Plant response rating (0 to 100), Bermudagrass","bermudagrass; Preemergence, 250 g ai/ha",100
same,Bermudagrass plant response rating,bermudagrass; [12],100
same,"Crabgrass, Large plant response rating","crabgrass; 62 g ai/ha, scale 0 to 100",100
same,"Plant response rating, Crabgrass, Large",crabgrass; [7],100
same,"Plant response rating (0 to 100), Crabgrass, Large",crabgrass; 250 g ai/ha,100
same,Johnsongrass plant response rating,"johnsongrass; 62 g ai/ha, scale 0 to 100",100
same,"Plant response rating, Johnsongrass",johnsongrass; [7],100
same,"Plant response rating (0 to 100), Johnsongrass",johnsongrass; 250 g ai/ha,100
same,Pigweed plant response rating,"pigweed; 62 g ai/ha, scale 0 to 100",100
same,"Plant response rating, Pigweed",pigweed; [7],100
same,Corn plant response rating,corn; [3],40
same,Corn plant response rating,corn; [4],40
same,Corn plant response rating,corn; [5],0
same,"Plant response rating, Corn",corn; [6],50
same,"Foxtail, Giant plant response rating","giant foxtail [1]; 62 g ai/ha, scale 0 to 100",100
same,"Plant response rating, Foxtail, Giant",giant foxtail [1]; [7],100
same,"Plant response rating (0 to 100), Foxtail, Giant",giant foxtail [1]; 250 g ai/ha,100
same,"Plant response rating, Barnyardgrass",barnyardgrass; [7],0
same,"Plant response rating, Barnyardgrass",barnyardgrass; [8],0
same,"Plant response rating, Barnyardgrass",barnyardgrass; [9],30
same,"Plant response rating, Barnyardgrass",barnyardgrass; [10],75
same,Morningglory plant response rating,"morningglory; 62 g ai/ha, scale 0 to 100",100
same,"Plant response rating, Morningglory",morningglory; [7],85
same,Lambsquarters plant response rating,"lambsquarters; 62 g ai/ha, scale 0 to 100",95
same,"Plant response rating, Lambsquarters",lambsquarters; [7],80
same,Soybean plant response rating,"soybean; 62 g ai/ha, scale 0 to 100",15
same,"Plant response rating, Soybean",soybean; [7],10
same,"Bromegrass, Downy plant response rating","downy brome; 62 g ai/ha, Preemergence, scale 0 to 100",50
same,"Plant response rating, Bromegrass, Downy",downy brome; [11],0
same,"Plant response rating (0 to 100), Bromegrass, Downy","downy brome; Preemergence, 250 g ai/ha",80
same,"Bromegrass, Downy plant response rating",downy brome; [12],70
same,"Foxtail, Giant plant response rating",giant foxtail [2]; [3],80
same,"Foxtail, Giant plant response rating",giant foxtail [2]; [4],90
same,"Foxtail, Giant plant response rating",giant foxtail [2]; [5],100
same,"Plant response rating, Foxtail, Giant",giant foxtail [2]; [6],100
same,Surinam Grass plant response rating,"Surinam grass; 62 g ai/ha, scale 0 to 100",100
same,"Plant response rating, Surinam Grass",Surinam grass; [7],85
same,Velvetleaf plant response rating,velvetleaf; [3],50
same,Velvetleaf plant response rating,velvetleaf; [4],60
same,Velvetleaf plant response rating,velvetleaf; [5],30
same,"Plant response rating, Velvetleaf",velvetleaf; [6],90
same,Galium plant response rating,"catchweed bedstraw; 62 g ai/ha, scale 0 to 100",100
same,"Plant response rating, Galium",catchweed bedstraw; [7],100
same,"Plant response rating (0 to 100), Galium",catchweed bedstraw; 250 g ai/ha,100

# Source: patent US20100298141A1, “SUBSTITUTED PYRIDINE N-OXIDE HERBICIDES” (E. I. DU PONT DE NEMOURS AND COMPANY, priority 2007, published 2010)
